The source of these data is patent US8183251B2, “Hydantoin compounds and pharmaceutical compositions thereof” (AstraZeneca AB, priority 2006, dated 2012).

SMILES strings stand for the structures. Structures can show the parent of a compound that is named as a salt. Some results are limits rather than exact numbers.

Common to all, as to type: biochemical
Experiment [1] concerns the target T1, human MMP12 catalytic domain (Homo sapiens, UniProt P39900).
T1 construct: Recombinant human MMP12 catalytic domain; made in house
The experiment can be described thus: Isolated enzyme assay MMP12 (fluorogenic substrate). The note with it: recombinant human MMP12 catalytic domain, 60 minutes at room temperature; read-out: hMMP12 IC50. As to the method:
Recombinant human MMP12 catalytic domain may be expressed and purified as described by Parkar A. A. et al, (2000), Protein Expression and Purification, 20, 152. The purified enzyme can be used to monitor inhibitors of activity as follows: MMP12 (50 ng/ml final concentration) is incubated for 60 minutes at room temperature with the synthetic substrate Mca-Pro-Cha-Gly-Nva-His-Ala-Dpa-NH2 (10 μM) in assay buffer (0.1M “Tris-HCl” (trade mark) buffer, pH 7.3 containing 0.1M NaCl, 20 mM CaCl2, 0.020 mM ZnCl and 0.05% (w/v) “Brij 35” (trade mark) detergent) in the presence (10 concentrations) or absence of inhibitors. Activity is determined by measuring the fluorescence at λex 320 nm and λem 405 nm. Percent inhibition is calculated as follows: % Inhibition is equal to the [Fluorescenceplus inhibitor−Fluorescencebackground] divided by the [Fluorescenceminus inhibitor−Fluorescencebackground].

The subject of experiment [2] is human MMP9 catalytic domain. Description: Isolated enzyme assay MMP9 (fluorogenic substrate). The note with it: IC50 (MMP9) divided by IC50 (MMP12). As to the method:
Recombinant human MMP9 catalytic domain was expressed and then purified by Zn chelate column chromatography followed by hydroxamate affinity column chromatography. The enzyme can be used to monitor inhibitors of activity as follows: MMP9 (5 ng/ml final concentration) is incubated for 30 minutes at RT with the synthetic substrate Mca-Pro-Cha-Gly-Nva-His-Ala-Dpa-NH2 (5 μM) in assay buffer (0.1M “Tris-HCl” (trade mark) buffer, pH 7.3 containing 0.1M NaCl, 20 mM CaCl2, 0.020 mM ZnCl and 0.05% (w/v) “Brij 35” (trade mark) detergent) in the presence (10 concentrations) or absence of inhibitors. Activity is determined by measuring the fluorescence at λex 320 nm and λem 405 nm. Percent inhibition is calculated as follows: […]
% Inhibition is equal to the [Fluorescenceplus inhibitor−Fluorescencebackground] divided by the [Fluorescenceminus inhibitor−Fluorescencebackground].
A protocol for testing against other matrix metalloproteinases, including MMP9, using expressed and purified pro MMP is described, for instance, by C. Graham Knight et al., (1992) FEBS Lett., 296 (3), 263-266.

In experiment [3] the target is T2, hMMP8 (Homo sapiens, UniProt P22894).
T2 construct: purchased Calbiochem
T2 sequence (P22894 101-467): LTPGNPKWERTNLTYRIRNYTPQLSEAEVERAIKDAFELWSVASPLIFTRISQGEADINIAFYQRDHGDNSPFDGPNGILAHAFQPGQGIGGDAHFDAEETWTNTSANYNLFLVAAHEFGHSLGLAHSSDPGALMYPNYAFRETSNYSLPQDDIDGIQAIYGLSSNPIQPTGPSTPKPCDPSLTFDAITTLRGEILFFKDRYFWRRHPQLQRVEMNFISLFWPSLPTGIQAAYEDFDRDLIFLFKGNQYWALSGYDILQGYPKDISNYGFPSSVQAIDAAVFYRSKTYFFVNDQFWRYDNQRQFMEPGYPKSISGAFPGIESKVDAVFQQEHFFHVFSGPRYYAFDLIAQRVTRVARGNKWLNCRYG
The experiment can be described thus: Isolated enzyme assay MMP8 (fluorogenic substrate). The note with it: IC50 (MMP8) divided by IC50 (MMP12). As to the method: Purified pro-MMP8 is purchased from Calbiochem. The enzyme (at 10 μg/ml) is activated by p-amino-phenyl-mercuric acetate (APMA) at 1 mM for 2.5 h, 35° C. The activated enzyme can be used to monitor inhibitors of activity as follows: MMP8 (200 ng/ml final concentration) is incubated for 90 minutes at 35° C. (80% H2O) with the synthetic substrate Mca-Pro-Cha-Gly-Nva-His-Ala-Dpa-NH2 (12.5 μM) in assay buffer (0.1M “Tris-HCl” (trade mark) buffer, pH 7.5 containing 0.1M NaCl, 30 mM CaCl2, 0.040 mM ZnCl and 0.05% (w/v) “Brij 35” (trade mark) detergent) in the presence (10 concentrations) or absence of inhibitors. Activity is determined by measuring the fluorescence at λex 320 nm and λem 405 nm. Percent inhibition is calculated as follows: % Inhibition is equal to the [Fluorescenceplus inhibitor−Fluorescencebackground] divided by the [Fluorescenceminus inhibitor−Fluorescencebackground].

In experiment [4] the target is T3, human MMP14 catalytic domain (Homo sapiens, UniProt P50281).
T3 construct: Recombinant human MMP14 catalytic domain; made in house
Description: Isolated enzyme assay MMP14 (fluorogenic substrate). The note with it: IC50 (MMP14) divided by IC50 (MMP12). The protocol: Recombinant human MMP14 catalytic domain may be expressed and purified as described by Parkar A. A. et al, (2000), Protein Expression and Purification, 20, 152. The purified enzyme can be used to monitor inhibitors of activity as follows: MMP14 (10 ng/ml final concentration) is incubated for 60 minutes at room temperature with the synthetic substrate Mca-Pro-Cha-Gly-Nva-His-Ala-Dpa-NH2 (10 μM) in assay buffer (0.1M “Tris-HCl” (trade mark) buffer, pH 7.5 containing 0.1M NaCl, 20 mM CaCl2, 0.020 mM ZnCl and 0.05% (w/v) “Brij 35” (trade mark) detergent) in the presence (5 concentrations) or absence of inhibitors. Activity is determined by measuring the fluorescence at λex 320 nm and λem 405 nm. Percent inhibition is calculated as follows: % Inhibition is equal to the [Fluorescenceplus inhibitor−Fluorescencebackground] divided by the [Fluorescenceminus inhibitor−Fluorescencebackground].

The target in experiment [5] is T4, human MMP19 catalytic domain (Homo sapiens, UniProt Q99542).
T4 construct: Recombinant human MMP19 catalytic domain; made in house
T4 sequence (Q99542 98-256 limits assumed): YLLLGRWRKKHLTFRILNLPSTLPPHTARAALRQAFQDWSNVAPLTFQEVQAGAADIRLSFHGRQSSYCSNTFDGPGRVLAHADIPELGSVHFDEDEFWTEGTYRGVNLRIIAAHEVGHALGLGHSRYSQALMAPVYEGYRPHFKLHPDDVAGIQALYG
The experiment can be described thus: Isolated enzyme assay MMP19 (fluorogenic substrate). The note with it: IC50 (MMP19) divided by IC50 (MMP12). The protocol:
Recombinant human MMP19 catalytic domain may be expressed and purified as described by Parkar A. A. et al, (2000), Protein Expression and Purification, 20:152. The purified enzyme can be used to monitor inhibitors of activity as follows: MMP19 (40 ng/ml final concentration) is incubated for 120 minutes at 35° C. with the synthetic substrate Mca-Pro-Leu-Ala-Nva-Dpa-Ala-Arg-NH2 (5 μM) in assay buffer (0.1M “Tris-HCl” (trade mark) buffer, pH 7.3 containing 0.1M NaCl, 20 mM CaCl2, 0.020 mM ZnCl and 0.05% (w/v) “Brij 35” (trade mark) detergent) in the presence (5 concentrations) or absence of inhibitors. Activity is determined by measuring the fluorescence at λex 320 nm and λem 405 nm. Percent inhibition is calculated as follows: % Inhibition is equal to the [Fluorescenceplus inhibitor−Fluorescencebackground] divided by the [Fluorescenceminus inhibitor−Fluorescencebackground].

T1 sequence (P39900 106-263 limits assumed): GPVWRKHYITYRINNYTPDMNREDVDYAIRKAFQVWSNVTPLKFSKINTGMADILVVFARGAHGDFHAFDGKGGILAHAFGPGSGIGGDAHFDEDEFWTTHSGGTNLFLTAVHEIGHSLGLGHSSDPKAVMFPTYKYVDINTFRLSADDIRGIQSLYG

For orientation: IC50 means the concentration needed to halve the response being measured. In the case of `CN(Cc1ccc(Oc2cncnc2)cc1)S(=O)(=O)C[C@@]1(C2CC2)NC(=O)NC1=O` [Example 1, 1-[(4S)-4-Cyclopropyl-2,5-dioxoimidazolidin-4-yl]-N-methyl-N-{[4-(pyrimidin-5-yloxy)phenyl]methyl}methanesulfonamide trifluoroacetic acid salt], the IC50 in experiment [1] was determined as 19 nM. In addition, in experiment [2], the “Selectivity for inhibition of hMMP12 over: hMMP9” value is greater than 525. For the same compound, the “Selectivity for inhibition of hMMP12 over: hMMP8” value in experiment [3] was found to be 320. Also, the “Selectivity for inhibition of hMMP12 over: hMMP14” value in experiment [4] is greater than 525. Besides, the “Selectivity for inhibition of hMMP12 over: hMMP19” value in experiment [5] is on record as greater than 525.

Take `O=C1NC(=O)[C@](CS(=O)(=O)NCc2ccc(Oc3cnc(C(F)(F)F)nc3)cc2)(C2CC2)N1` [Example 6, 1-[(4S)-4-Cyclopropyl-2,5-dioxoimidazolidin-4-yl]-N-[(4-{[2-(trifluoromethyl)pyrimidin-5-yl]oxy}benzyl)]methane sulfonamide]: the IC50 in experiment [1] is 63.7 nM. Further, the “Selectivity for inhibition of hMMP12 over: hMMP9” value in experiment [2] was 1530. Moreover, the “Selectivity for inhibition of hMMP12 over: hMMP8” value in experiment [3] is listed as 657.

Turning to `CCc1ncc(Oc2ccc(CN(C)S(=O)(=O)C[C@@]3(C4CC4)NC(=O)NC3=O)cc2)cn1` [Example 5, 1-[(4S)-4-Cyclopropyl-2,5-dioxoimidazolidin-4-yl]-N-({4-[(2-ethylpyrimidin-5-yl)oxy]phenyl}methyl)-N-methylmethanesulfonamide], in experiment [1], the IC50 amounted to 17 nM. The “Selectivity for inhibition of hMMP12 over: hMMP9” value in experiment [2] was determined as 523. For the same compound, the “Selectivity for inhibition of hMMP12 over: hMMP8” value in experiment [3] was 417. The “Selectivity for inhibition of hMMP12 over: hMMP14” value in experiment [4] is greater than 588. For the same compound, in experiment [5], the “Selectivity for inhibition of hMMP12 over: hMMP19” value was greater than 588.

`CN(Cc1ccc(Oc2cnc(C(F)(F)F)nc2)cc1)S(=O)(=O)C[C@@]1(C2CC2)NC(=O)NC1=O` [Example 4, 1-[(4S)-4-Cyclopropyl-2,5-dioxoimidazolidin-4-yl]-N-methyl-N-[(4-{[2-(trifluoromethyl)pyrimidin-5-yl]oxy}phenyl)methyl]methanesulfonamide]: in experiment [1], the 50% inhibitory concentration (IC50) worked out at 8.3 nM. Also, the “Selectivity for inhibition of hMMP12 over: hMMP9” value in experiment [2] is greater than 795. In experiment [3], the “Selectivity for inhibition of hMMP12 over: hMMP8” value is greater than 1168. Also, the “Selectivity for inhibition of hMMP12 over: hMMP14” value in experiment [4] is greater than 3560. Further, in experiment [5], the “Selectivity for inhibition of hMMP12 over: hMMP19” value is listed as greater than 2882.

On to `C[C@]1(CS(=O)(=O)NCc2ccc(Oc3ccccc3)cc2)NC(=O)NC1=O` [reference compound], for which the IC50 in experiment [1] was determined as 151 nM. Besides, in experiment [2], the “Selectivity for inhibition of hMMP12 over: hMMP9” value worked out at 261. In experiment [3], the “Selectivity for inhibition of hMMP12 over: hMMP8” value worked out at 202. For the same compound, the “Selectivity for inhibition of hMMP12 over: hMMP14” value in experiment [4] is listed as greater than 330. Further, the “Selectivity for inhibition of hMMP12 over: hMMP19” value in experiment [5] is reported as greater than 330.

`CN(Cc1ccc(Oc2cnc(C3CC3)nc2)cc1)S(=O)(=O)C[C@@]1(C2CC2)NC(=O)NC1=O` [Example 2, 1-[(4S)-4-Cyclopropyl-2,5-dioxoimidazolidin-4-yl]-N-({4-[(2-cyclopropylpyrimidin-5-yl)oxy]phenyl}methyl)-N-methylmethanesulfonamide]: the half-inhibitory concentration (IC50) in experiment [1] came to 4.3 nM. Besides, the “Selectivity for inhibition of hMMP12 over: hMMP9” value in experiment [2] is on record as 1440. The “Selectivity for inhibition of hMMP12 over: hMMP8” value in experiment [3] was found to be 2120. In addition, the “Selectivity for inhibition of hMMP12 over: hMMP14” value in experiment [4] is reported as greater than 2320. Further, the “Selectivity for inhibition of hMMP12 over: hMMP19” value in experiment [5] is given as greater than 2320.

Take `Cc1ncc(Oc2ccc(CN(C)S(=O)(=O)C[C@@]3(C4CC4)NC(=O)NC3=O)cc2)cn1` [Example 3, 1-[(4S)-4-Cyclopropyl-2,5-dioxoimidazolidin-4-yl]-N-methyl-N-({4-[(2-methylpyrimidin-5-yl)oxy]phenyl}methyl)methanesulfonamide]: the half-maximal inhibitory concentration (IC50) in experiment [1] came out at 14 nM. The “Selectivity for inhibition of hMMP12 over: hMMP9” value in experiment [2] is given as 857. Besides, in experiment [3], the “Selectivity for inhibition of hMMP12 over: hMMP8” value is listed as greater than 628. Also, the “Selectivity for inhibition of hMMP12 over: hMMP14” value in experiment [4] is reported as greater than 7142. Further, in experiment [5], the “Selectivity for inhibition of hMMP12 over: hMMP19” value is greater than 2800.
